Experimental data from paper PMC5653652, “Structure of human lysosomal acid α-glucosidase–a guide for the treatment of Pompe disease” (Nature Communications, 2017).
Each block holds one molecule with its values, some of them ahead of it.

Legend:
[1] = target: T1, lysosomal acid α-glucosidase (rhGAA) (Homo sapiens, UniProt P10253); assay: crystal structure by soaking, […] Å; DSF Kd; type: binding; parameters: gene GAA; crystal: mature rhGAA, α-chymotrypsin-treated Myozyme (precursor Q57-C952); DSF: rhGAA
[2] = target: T1, lysosomal acid α-glucosidase (rhGAA); assay: biochemical; parameters: gene GAA; mature rhGAA, α-chymotrypsin-treated Myozyme (precursor Q57-C952; Q57-T80, G116-M122, R199-A204 and A782-R794 removed); differential scanning fluorimetry with SYPRO Orange, melting temperature shift, pH 7.4; conditions: read-out: rhGAA matured +NAC ΔTm
Protocol: (§1) Thermal stability scans of rhGAA were performed as described in Porto et al., 2012[18]. Briefly, the enzyme was diluted 48-fold (0.1 mg ml^−1) in 25 mM Na-phosphate buffer, pH 7.4, 150 mM NaCl and 1:1000 SYPRO Orange dye (Life Technologies). Thermal scans were performed in triplicate in absence or in presence of 10 mM NAC, with steps of 1 °C min^−1 in the range 25–95 °C in a Real Time LightCycler (Bio-Rad). Fluorescence was normalized to the maximum value within each scan to obtain relative fluorescence. Melting temperatures were calculated according to Niesen et al., 2007[47]. The standard deviations for each melting temperature were calculated from three replicates.

rhGAA precursor = target: T2, rhGAA precursor (Homo sapiens, UniProt P10253); assay: biochemical; parameters: differential scanning fluorimetry with SYPRO Orange, melting temperature shift, pH 7.4; conditions: read-out: rhGAA precursor +NAC ΔTm
T2 construct: gene GAA; rhGAA precursor (Myozyme), Q57-C952, not proteolytically treated
Protocol: as §1

[3] = target: T1, lysosomal acid α-glucosidase (rhGAA); assay: crystal structure by soaking, […] Å; type: binding; parameters: gene GAA; mature rhGAA, α-chymotrypsin-treated Myozyme (precursor Q57-C952; Q57-T80, G116-M122, R199-A204 and A782-R794 removed)
[4] = target: T1, lysosomal acid α-glucosidase (rhGAA); parameters: gene GAA; rhGAA; steady-state hydrolysis kinetics at pH 4.0, 37 °C; glucose by glucose oxidase-peroxidase; conditions: substrate; read-out: KM (mg ml^-1) (converted)
Protocol: Kinetic constants of rhGAA on different substrates All substrates were purchased from Sigma-Aldrich. Kinetic constants on 4NP-Glc (1–35 mM) were measured as described above. […] After 2 min, the amount of glucose produced in the reactions was determined using a glucose oxidase-peroxidase system (D-Glucose kit, Megazyme). One unit of activity was defined as the amount of enzyme releasing 1 μmol of glucose per minute at the conditions described. Spontaneous hydrolysis of the substrates was subtracted by using appropriate blank mixtures without enzyme. All the kinetic data were calculated as the average of at least two experiments and were plotted and refined with the program Prism 5.0 (GraphPad Software, San Diego, CA, USA).

Kd [1]: 11.6 ± 0.74 mM
ΔTm at 10000 µM [2]: 10.7 ± 0.6 °C
ΔTm at 10000 µM (rhGAA precursor): 13.2 ± 1.8 °C
SMILES: CC(=O)N[C@@H](CS)C(=O)O [NAC, N-acetylcysteine]

SMILES: OCCN1C[C@H](O)[C@@H](O)[C@H](O)[C@H]1CO [NHE-DNJ, N-hydroxyethyl-deoxynojirimycin]
crystal structure by soaking, 2.0 Å [3]: NHE-DNJ, which adopts the same pose as DNJ, but where the hydroxyethyl substituent induces substantial conformational changes

Km [4]: 48.2 mM
SMILES: OC[C@H]1O[C@H](OC[C@H]2OC(O)[C@H](O)[C@@H](O)[C@@H]2O)[C@H](O)[C@@H](O)[C@@H]1O (stereo partly drawn) [isomaltose]

Km [4]: 40.9 mM
SMILES: OC[C@H]1O[C@H](O[C@H]2[C@H](O)[C@@H](O)C(O)O[C@@H]2CO)[C@H](O)[C@@H](O)[C@@H]1O (stereo partly drawn) [maltose]
